Values belong to the compound of their own block, whether it stands above or below them.
Legend:
Cyp1 A2 = molecular target: T1, Cyp1 A2 (Homo sapiens, UniProt P05177); conditions: cDNA-expressed human Cyp1 A2; cited from earlier work
T1 sequence (P05177 1-516): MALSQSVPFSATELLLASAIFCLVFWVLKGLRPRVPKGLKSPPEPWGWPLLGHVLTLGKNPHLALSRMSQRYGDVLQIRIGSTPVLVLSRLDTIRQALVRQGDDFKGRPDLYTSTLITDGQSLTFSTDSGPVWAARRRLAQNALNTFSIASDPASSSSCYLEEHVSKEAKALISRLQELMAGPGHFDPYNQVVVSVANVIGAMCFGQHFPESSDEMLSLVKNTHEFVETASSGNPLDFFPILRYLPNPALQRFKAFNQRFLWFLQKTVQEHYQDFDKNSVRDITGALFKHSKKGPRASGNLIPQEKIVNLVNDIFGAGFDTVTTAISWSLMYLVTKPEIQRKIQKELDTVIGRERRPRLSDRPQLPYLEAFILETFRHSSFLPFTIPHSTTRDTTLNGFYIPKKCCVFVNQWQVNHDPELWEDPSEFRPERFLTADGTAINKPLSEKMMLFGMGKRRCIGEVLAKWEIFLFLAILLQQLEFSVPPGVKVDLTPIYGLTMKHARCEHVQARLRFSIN

Cyp1B1 = molecular target: T2, Cyp1B1 (Homo sapiens, UniProt Q16678); conditions: cDNA-expressed human Cyp1B1; cited from earlier work
T2 sequence (Q16678 1-543): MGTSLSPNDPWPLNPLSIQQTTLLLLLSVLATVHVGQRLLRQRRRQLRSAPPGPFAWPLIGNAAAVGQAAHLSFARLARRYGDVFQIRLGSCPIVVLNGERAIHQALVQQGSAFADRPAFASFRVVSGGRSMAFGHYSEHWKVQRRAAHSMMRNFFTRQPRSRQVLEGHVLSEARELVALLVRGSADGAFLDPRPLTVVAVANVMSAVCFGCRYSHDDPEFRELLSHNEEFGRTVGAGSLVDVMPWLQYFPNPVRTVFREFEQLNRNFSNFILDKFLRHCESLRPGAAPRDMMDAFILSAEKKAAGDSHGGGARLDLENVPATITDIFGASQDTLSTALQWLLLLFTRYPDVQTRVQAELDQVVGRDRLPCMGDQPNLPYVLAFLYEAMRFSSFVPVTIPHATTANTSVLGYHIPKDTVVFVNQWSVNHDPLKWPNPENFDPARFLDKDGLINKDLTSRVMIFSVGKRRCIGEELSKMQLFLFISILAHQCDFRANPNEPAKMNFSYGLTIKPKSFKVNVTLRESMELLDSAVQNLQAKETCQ

Cyp1 A1 = molecular target: T3, Cyp1 A1 (Homo sapiens, UniProt P04798); conditions: cDNA-expressed human Cyp1 A1; cited from earlier work
T3 sequence (P04798 1-512): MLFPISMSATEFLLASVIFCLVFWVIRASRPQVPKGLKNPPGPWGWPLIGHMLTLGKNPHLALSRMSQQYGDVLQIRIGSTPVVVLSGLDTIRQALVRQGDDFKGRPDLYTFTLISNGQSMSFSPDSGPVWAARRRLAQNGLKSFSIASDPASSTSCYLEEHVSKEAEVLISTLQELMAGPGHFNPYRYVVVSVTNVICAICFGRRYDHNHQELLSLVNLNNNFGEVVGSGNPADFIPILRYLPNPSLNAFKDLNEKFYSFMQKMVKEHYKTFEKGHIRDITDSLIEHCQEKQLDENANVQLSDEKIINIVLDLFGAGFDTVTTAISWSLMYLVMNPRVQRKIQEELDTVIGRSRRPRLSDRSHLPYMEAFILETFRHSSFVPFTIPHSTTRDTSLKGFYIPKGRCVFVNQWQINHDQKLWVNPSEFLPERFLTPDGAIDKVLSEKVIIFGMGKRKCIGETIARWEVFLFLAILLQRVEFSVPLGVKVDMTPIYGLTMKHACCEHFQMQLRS

endothelial cells = conditions: in vitro model, endothelial cells invading collagen gel and forming capillary-like tubes; cited from earlier work
in vitro = conditions: human, Caco-2
Method: (§1) To test the permeability of xanthohumol across Caco-2 cell monolayers, Caco-2 cell monolayers were grown to confluence on collagen-coated, microporous, polycarbonate membranes in 12-well Costar Transwell® plates. Details of the plates and their certification are shown below in Table 3. The test article was also the aqueous xanthohumol formulation, and the dosing concentration was 2 μM in the assay buffer (HBSSg) as in the previous example. Cell monolayers were dosed on the apical side (A-to-B) or basolateral side (B-to-A) and incubated at 37° C. with 5% CO2 in a humidified incubator. Samples were taken from the donor chamber at 120 minutes, and samples from the receiver chamber were collected at 60 and 120 minutes. Each determination was performed in duplicate. Lucifer yellow permeability was also measured for each monolayer after being subjected to the test article to ensure no damage was inflicted to the cell monolayers during the permeability experiment. All samples were assayed for Xanthohumol by LC/MS/MS using electrospray ionization. The apparent permeability (Papp), and percent recovery were calculated as described above.

Caco-2 cell monolayers [1] = test: Permeability across Caco-2 cell monolayers; format: in vitro ADME
Method: (§2) Percent Recovery=100×((Vr×Cr^final)+(Vd×Cd^final))/(Vd×C0) • Where: • dCr/dt is the slope of the cumulative concentration in the receiver compartment versus time in μM s^−1. • Vr is the volume of the receiver compartment in cm^3. • Vd is the volume of the donor compartment in cm^3. • A is the area of the cell-free insert (1.13 cm^2 for 12-well Transwell). • Cr^final is the cumulative receiver concentration in μM at the end of the incubation period. • Cd^final is the concentration of the donor in μM at the end of the incubation period. • C0 is the initial concentration of the dosing solution in μM.
(§3) Each determination was performed in duplicate.

Caco-2 cell monolayers [2] = test: Caco-2 Transwell plate certification with control compounds; conditions: Caco-2 plate certification, TW12, passage 63, age 22 days
Method: as §1

inducible COX-2 = conditions: read-out: IC50, inhibition of cyclooxygenase; cited from earlier work
[3] = Permeability through cell-free (blank) microporous membrane filter, non-specific binding assessment; format: in vitro ADME; conditions: not told, pH 7.4, cell-free filter; for Papp A→B at 120 min, 2 μM: xanthohumol gel formulation at 2 μM xanthohumol; for recovery at 120 min, 2 μM: xanthohumol gel formulation at 2 μM
Method: The permeability of the xanthohumol gel through a cell-free (blank) microporous 0.4 micron membrane filter was studied in order to determine the non-specific binding and cell-free diffusion Papp of the xanthohumol gel formulation. The xanthohumol gel formulation was assayed at a 2 μM xanthohumol concentration in Hanks buffer (Hanks Balanced Salt Solution (HBSSg) containing 10 mM HEPES and 15 mM glucose) at a pH of 7.4 in duplicate. Donor samples were collected at 120 minutes. Receiver samples were collected at 60 and 120 minutes. The apparent permeability coefficient, Papp, and percent recovery were calculated as follows:
as §2

[4] = Permeability across Caco-2 cell monolayers; format: in vitro ADME; conditions: human
Method: as §2, §3

Compound: CC(C)=CCc1c(O)cc(O)c2c1O[C@H](c1ccc(O)cc1)CC2=O [8-prenylnaringenin]
- Inhibition of cytochrome P450 enzyme (Cyp1 A2): strongly inhibit
- Inhibition of cytochrome P450 enzyme (Cyp1B1): strongly inhibit
- Inhibition of cytochrome P450 enzyme (Cyp1 A1): strongly inhibit
- Effect on angiogenesis (endothelial cells): inhibits angiogenesis

Compound: COc1cc(O)c(CC=C(C)C)c2c1C(=O)CC(c1ccc(O)cc1)O2 (stereo not shown) [isoxanthohumol]
- Inhibition of cytochrome P450 enzyme (Cyp1 A2): strongly inhibit
- Inhibition of cytochrome P450 enzyme (Cyp1B1): strongly inhibit
- Inhibition of cytochrome P450 enzyme (Cyp1 A1): strongly inhibit

- Papp (in vitro): 20.6 ×10⁻⁶ cm/s
Compound: CC(C)NCC(O)COc1cccc2ccccc12 (stereo not shown) [Propranolol]

- Lucifer yellow Papp, post-experiment integrity control (Caco-2 cell monolayers [1]; all monolayers after exposure to test article): < 0.8 ×10⁻⁶ cm/s
- Papp (Caco-2 cell monolayers [2]): 0.13 ×10⁻⁶ cm/s
Compound: Lucifer Yellow [reference compound]

- Papp A→B at 120 min, 2 μM ([3]; pH 7.4, Rep. 1): 18.6 ×10⁻⁶ cm/s
- Papp A→B at 120 min, 2 μM ([3]; pH 7.4, Rep. 2): 17.1 ×10⁻⁶ cm/s
- Papp A→B at 120 min, 2 μM ([3]; pH 7.4, average N = 2): 17.9 ×10⁻⁶ cm/s
- recovery at 120 min, 2 μM ([3]; Rep. 1): 95%
- recovery at 120 min, 2 μM ([3]; Rep. 2): 99%
- recovery at 120 min, 2 μM ([3]; average N = 2): 97%
- efflux ratio at 120 min, 2 μM ([4]; Caco-2, pH 7.4): 2.1
- Papp A→B at 120 min, 2 μM ([4]; Caco-2, pH 7.4, Papp): 0.84 ×10⁻⁶ cm/s
- Papp B→A at 120 min, 2 μM ([4]; Caco-2, pH 7.4, Papp): 1.36 ×10⁻⁶ cm/s
- Significant Efflux (Caco-2 cell monolayers [1]; Caco-2): No
Compound: COc1cc(O)c(CC=C(C)C)c(O)c1C(=O)/C=C/c1ccc(O)cc1 [Xanthohumol, xanthohumol]
- Inhibition of cytochrome P450 enzyme (Cyp1 A2): strongly inhibit
- IC50 (inducible COX-2): 42 µM
- Inhibition of cytochrome P450 enzyme (Cyp1B1): strongly inhibit
- Inhibition of cytochrome P450 enzyme (Cyp1 A1): strongly inhibit

- efflux ratio (in vitro): 16.6
Compound: C[C@H]1O[C@@H](O[C@H]2[C@@H](O)C[C@H](O[C@H]3[C@@H](O)C[C@H](O[C@H]4CC[C@@]5(C)[C@H](CC[C@@H]6[C@@H]5C[C@@H](O)[C@]5(C)[C@@H](C7=CC(=O)OC7)CC[C@]65O)C4)O[C@@H]3C)O[C@@H]2C)C[C@H](O)[C@@H]1O [Digoxin]
